Results: ChEMBL document CHEMBL4270577, “Synthesis, anticancer activity and molecular modeling studies of 1,2,4-triazole derivatives as EGFR inhibitors” (Eur J Med Chem, 2018)

How the values were obtained:
[1] = biological target: Tubulin (Homo sapiens) (UniProt P68371+Q9H4B7+P0DPH7+P68366+Q13509+Q71U36+P04350+Q3ZCM7+P07437+P68363+Q9BQE3+Q6PEY2+Q13885+Q9BVA1+Q9BUF5); test: Inhibition of tubulin (unknown origin) polymerization assessed as polymerized tubulin level at 5 to 25 uM by fluorescence assay; format: protein-complex assay
[2] = test system: CCRF-CEM; test: Growth inhibition of human CCRF-CEM cells at 10 uM incubated for 48 hrs by sulforhodamine B assay relative to control; format: functional; details: read-out: GI
[3] = test system: HL-60(TB); test: Growth inhibition of human HL-60(TB) cells at 10 uM incubated for 48 hrs by sulforhodamine B assay relative to control; format: functional; details: HL-60, 48 h, read-out: GI
[4] = test system: MOLT-4; test: Growth inhibition of human MOLT4 cells at 10 uM incubated for 48 hrs by sulforhodamine B assay relative to control; format: functional; details: MOLT-4, 48 h, read-out: GI
[5] = test system: RPMI-8226; test: Growth inhibition of human RPMI8226 cells at 10 uM incubated for 48 hrs by sulforhodamine B assay relative to control; format: functional; details: RPMI-8226, 48 h, read-out: GI
[6] = test system: SR; test: Growth inhibition of human SR cells at 10 uM incubated for 48 hrs by sulforhodamine B assay relative to control; format: functional; details: read-out: GI
[7] = test system: A549; test: Growth inhibition of human A549/ATCC cells at 10 uM incubated for 48 hrs by sulforhodamine B assay relative to control; format: functional; details: A549, 48 h, read-out: GI
[8] = test system: HOP-62; test: Growth inhibition of human HOP62 cells at 10 uM incubated for 48 hrs by sulforhodamine B assay relative to control; format: functional; details: HOP-62, 48 h, read-out: GI
[9] = test system: NCI-H226; test: Growth inhibition of human NCI-H226 cells at 10 uM incubated for 48 hrs by sulforhodamine B assay relative to control; format: functional; details: NCI-H226, 48 h, read-out: GI
[10] = test system: NCI-H23; test: Growth inhibition of human NCI-H23 cells at 10 uM incubated for 48 hrs by sulforhodamine B assay relative to control; format: functional; details: NCI-H23, 48 h, read-out: GI
[11] = test system: NCI-H322M; test: Growth inhibition of human NCI-H322M cells at 10 uM incubated for 48 hrs by sulforhodamine B assay relative to control; format: functional; details: read-out: GI
[12] = test system: NCI-H522; test: Growth inhibition of human NCI-H522 cells at 10 uM incubated for 48 hrs by sulforhodamine B assay relative to control; format: functional; details: NCI-H522, 48 h, read-out: GI
[13] = test system: HCT-116; test: Growth inhibition of human HCT116 cells at 10 uM incubated for 48 hrs by sulforhodamine B assay relative to control; format: functional; details: HCT-116, 48 h, read-out: GI
[14] = test system: HT-29; test: Growth inhibition of human HT-29 cells at 10 uM incubated for 48 hrs by sulforhodamine B assay relative to control; format: functional; details: HT-29, 48 h, read-out: GI
[15] = test system: SNB-75; test: Growth inhibition of human SNB75 cells at 10 uM incubated for 48 hrs by sulforhodamine B assay relative to control; format: functional; details: SNB-75, 48 h, read-out: GI
[16] = test system: U-251; test: Growth inhibition of human U251 cells at 10 uM incubated for 48 hrs by sulforhodamine B assay relative to control; format: functional; details: U-251, 48 h, read-out: GI
[17] = test system: SK-MEL-2; test: Growth inhibition of human SK-MEL-2 cells at 10 uM incubated for 48 hrs by sulforhodamine B assay relative to control; format: functional; details: SK-MEL-2, 48 h, read-out: GI
[18] = test system: UACC-257; test: Growth inhibition of human UACC257 cells at 10 uM incubated for 48 hrs by sulforhodamine B assay relative to control; format: functional; details: UACC-257, 48 h, read-out: GI
[19] = test system: UACC-62; test: Growth inhibition of human UACC62 cells at 10 uM incubated for 48 hrs by sulforhodamine B assay relative to control; format: functional; details: UACC-62, 48 h, read-out: GI
[20] = test system: OVCAR-8; test: Growth inhibition of human OVCAR8 cells at 10 uM incubated for 48 hrs by sulforhodamine B assay relative to control; format: functional; details: OVCAR-8, 48 h, read-out: GI
[21] = test system: SK-OV-3; test: Growth inhibition of human SKOV3 cells at 10 uM incubated for 48 hrs by sulforhodamine B assay relative to control; format: functional; details: SK-OV-3, 48 h, read-out: GI
[22] = test system: TK-10; test: Growth inhibition of human TK10 cells at 10 uM incubated for 48 hrs by sulforhodamine B assay relative to control; format: functional; details: TK-10, 48 h, read-out: GI
[23] = test system: UO-31; test: Growth inhibition of human UO31 cells at 10 uM incubated for 48 hrs by sulforhodamine B assay relative to control; format: functional; details: UO-31, 48 h, read-out: GI
[24] = test system: PC-3; test: Growth inhibition of human PC3 cells at 10 uM incubated for 48 hrs by sulforhodamine B assay relative to control; format: functional; details: PC-3, 48 h, read-out: GI
[25] = test system: PANC-1; test: Antiproliferative activity against human PANC1 cells after 48 hrs by propidium iodide staining-based fluorometric analysis; format: functional, cell-based; details: PANC-1, 48 h
[26] = test system: MIA PaCa-2; test: Antiproliferative activity against human MIAPaCa2 cells after 48 hrs by propidium iodide staining-based fluorometric analysis; format: functional, cell-based; details: MIA PaCa-2, 48 h
[27] = test system: HT-29; test: Antiproliferative activity against human HT-29 cells after 48 hrs by propidium iodide staining-based fluorometric analysis; format: functional, cell-based; details: HT-29, 48 h
[28] = test system: NCI-H460; test: Antiproliferative activity against human H460 cells after 48 hrs by propidium iodide staining-based fluorometric analysis; format: functional, cell-based; details: NCI-H460, 48 h
[29] = test system: HOP-92; test: Growth inhibition of human HOP92 cells at 10 uM incubated for 48 hrs by sulforhodamine B assay relative to control; format: functional; details: HOP-92, 48 h, read-out: GI
[30] = test system: SNB-19; test: Growth inhibition of human SNB19 cells at 10 uM incubated for 48 hrs by sulforhodamine B assay relative to control; format: functional; details: SNB-19, 48 h, read-out: GI
[31] = test system: MCF7; test: Growth inhibition of human MCF7 cells at 10 uM incubated for 48 hrs by sulforhodamine B assay relative to control; format: functional; details: MCF7, 48 h, read-out: GI
[32] = test system: Hs-578T; test: Growth inhibition of human Hs 578T cells at 10 uM incubated for 48 hrs by sulforhodamine B assay relative to control; format: functional; details: read-out: GI
[33] = test system: T47D; test: Growth inhibition of human T47D cells at 10 uM incubated for 48 hrs by sulforhodamine B assay relative to control; format: functional; details: read-out: GI

CC(=O)O[C@@]12CO[C@@H]1C[C@H](O)[C@@]1(C)C(=O)[C@H](O)C3=C(C)[C@@H](OC(=O)[C@H](O)[C@@H](NC(=O)OC(C)(C)C)c4ccccc4)C[C@@](O)([C@@H](OC(=O)c4ccccc4)[C@H]21)C3(C)C
Activity [1]: 4740 a.u.

C/C(=N/O)c1ccc(NC(=O)Cn2nc(C(F)(F)F)nc2N)cc1
inhibition of growth at 10 µM [2]: 10.5%
inhibition of growth at 10 µM [3]: 26%
inhibition of growth at 10 µM [4]: 23.3%
inhibition of growth at 10 µM [5]: 4.65%
inhibition of growth at 10 µM [6]: 15.9%
inhibition of growth at 10 µM [7]: 29%
inhibition of growth at 10 µM [8]: 9.21%
inhibition of growth at 10 µM [9]: 12.9%
inhibition of growth at 10 µM [10]: 4.46%
inhibition of growth at 10 µM [11]: 4.32%
inhibition of growth at 10 µM [12]: 31%
inhibition of growth at 10 µM [13]: 8.65%
inhibition of growth at 10 µM [14]: 11.9%
inhibition of growth at 10 µM [15]: 14.8%
inhibition of growth at 10 µM [16]: 11.3%
inhibition of growth at 10 µM [17]: 13.1%
inhibition of growth at 10 µM [18]: 25.6%
inhibition of growth at 10 µM [19]: 5.39%
inhibition of growth at 10 µM [20]: 20.5%
inhibition of growth at 10 µM [21]: 3.53%
inhibition of growth at 10 µM [22]: 14.3%
inhibition of growth at 10 µM [23]: 15.1%
inhibition of growth at 10 µM [24]: 20.3%
IC50 [25]: 3.5 µM
IC50 [26]: 4.9 µM
IC50 [27]: 5.4 µM
IC50 [28]: 5.2 µM

CC(=O)c1ccc(NC(=O)Cn2nc(-c3ccc(Cl)cc3)nc2N)cc1
inhibition of growth at 10 µM [2]: 19.9%
inhibition of growth at 10 µM [3]: 7.98%
inhibition of growth at 10 µM [4]: 16.5%
inhibition of growth at 10 µM [5]: 3.17%
inhibition of growth at 10 µM [6]: 7.32%
inhibition of growth at 10 µM [7]: 22%
inhibition of growth at 10 µM [8]: 15.1%
inhibition of growth at 10 µM [29]: 7.76%
inhibition of growth at 10 µM [11]: 5.69%
inhibition of growth at 10 µM [12]: 28%
inhibition of growth at 10 µM [13]: 4.68%
inhibition of growth at 10 µM [14]: 10.4%
inhibition of growth at 10 µM [30]: 8.53%
inhibition of growth at 10 µM [15]: 6.47%
inhibition of growth at 10 µM [16]: 5.94%
inhibition of growth at 10 µM [17]: 4.03%
inhibition of growth at 10 µM [18]: 19.8%
inhibition of growth at 10 µM [19]: 6.29%
inhibition of growth at 10 µM [20]: 15.4%
inhibition of growth at 10 µM [21]: 22%
inhibition of growth at 10 µM [23]: 20.6%
inhibition of growth at 10 µM [24]: 20.3%
inhibition of growth at 10 µM [31]: 5.48%
inhibition of growth at 10 µM [32]: 6.29%
inhibition of growth at 10 µM [33]: 21.6%
IC50 [25]: 7.4 µM
IC50 [26]: 8.1 µM
IC50 [27]: 6.9 µM
IC50 [28]: 6.8 µM

CC(=O)c1ccc(NC(=O)Cn2nc(C(F)(F)F)nc2N)cc1
inhibition of growth at 10 µM [2]: 6.78%
inhibition of growth at 10 µM [3]: 15.4%
inhibition of growth at 10 µM [4]: 7.46%
inhibition of growth at 10 µM [7]: 20%
inhibition of growth at 10 µM [8]: 9.94%
inhibition of growth at 10 µM [9]: 8.52%
inhibition of growth at 10 µM [12]: 21%
inhibition of growth at 10 µM [14]: 16%
inhibition of growth at 10 µM [30]: 4.37%
inhibition of growth at 10 µM [15]: 12.5%
inhibition of growth at 10 µM [18]: 14.6%
inhibition of growth at 10 µM [20]: 13.3%
inhibition of growth at 10 µM [21]: 7.02%
inhibition of growth at 10 µM [22]: 5.17%
inhibition of growth at 10 µM [23]: 13.7%
inhibition of growth at 10 µM [24]: 10.6%
inhibition of growth at 10 µM [32]: 7.42%
inhibition of growth at 10 µM [33]: 10.8%
IC50 [25]: 4.5 µM
IC50 [26]: 4.7 µM
IC50 [27]: 3.8 µM
IC50 [28]: 3.7 µM
